In patent US9604996B2 (Bayer Pharma Aktiengesellschaft, priority 2013, dated 2017):

Target: T1, human adenosine A2b receptor (Homo sapiens, UniProt P29275)
T1 construct: expressed in transfected cells; host or cells: CHO-K1 (Chinese Hamster Ovary) with CRE-luciferase reporter
T1 sequence (P29275 1-332): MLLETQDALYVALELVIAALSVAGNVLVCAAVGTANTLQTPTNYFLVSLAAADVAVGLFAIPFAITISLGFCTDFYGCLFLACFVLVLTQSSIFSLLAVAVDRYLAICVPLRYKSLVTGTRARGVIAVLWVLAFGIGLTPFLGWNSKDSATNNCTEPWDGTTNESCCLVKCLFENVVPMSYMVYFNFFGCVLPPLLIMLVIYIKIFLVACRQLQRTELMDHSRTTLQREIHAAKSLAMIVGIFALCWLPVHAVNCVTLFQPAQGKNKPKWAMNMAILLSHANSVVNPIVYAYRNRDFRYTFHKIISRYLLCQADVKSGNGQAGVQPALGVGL
Test: Cellular reporter gene (CRE-luciferase) A2b receptor antagonist assay in recombinant CHO-K1 cells stimulated with NECA
Type: cell-based
Details: recombinant CHO-K1 cell line, co-incubation with EC50 concentration of NECA, 3 hours, in some cases means, rounded to two significant digits
Method: B-1. Cellular In Vitro Tests for Determining A2b Receptor Activity and Adenosine Receptor Selectivity
The identification of selective antagonists of the human adenosine A2b receptor and the quantification of the efficacy and selectivity of the compounds according to the invention was carried out with the aid of recombinant cell lines for the human adenosine receptors A1, A2a, A2b and A3. These cell lines were originally derived from an ovarepithelial cell of the hamster (Chinese Hamster Ovary, CHO-K1, American Type Culture Collection, Manassas, Va. 20108, USA). In addition to the respective recombinantly expressed adenosine receptor for testing the efficacy at the A1, A2a and A2b receptors, the cell lines contain a reporter gene construct where expression of the firefly (Photinus pyralis) luciferase is under the control of a promoter which can be activated via intracellular signal cascades by stimulation of the receptors with the (not subtype-selective) adenosine receptor agonist NECA (5′-N-ethylcarboxamidoadenosine) [S. J. Hill, J. G. Baker, S. Rhees, Curr. Opin. Pharmacol. 1, 526-532 (2001)].
In the case of the A2a and A2b cell lines, this is a minimal promoter having a plurality of cAMP-responsive elements (CRE). Stimulation of the Gs coupled A2b or A2a receptors by NECA ultimately leads, via formation of cAMP, to CRE-dependent induction of luciferase expression, which is detected 3 hours after the start of the incubation with NECA using a detection solution in a suitable luminometer. For testing the antagonists, initially, in a pre-experiment, the concentration of NECA which, at the test day in question, results in half-maximum stimulation of luciferase expression (EC50 concentration) is determined By joint incubation of this EC50 concentration of NECA with the substances to be tested, it is possible to determine their antagonistic activity.

IC50 [µM]	SMILES
0.22	CCn1c(=O)c2c(C)c(C(=O)N3CCNC(=O)C3C)sc2n(CCC(F)(F)F)c1=O (racemic) [Example 39, 3-Ethyl-5-methyl-6-[(2-methyl-3-oxopiperazin-1-yl)carbonyl]-1-(3,3,3-trifluoropropyl)thieno[2,3-d]pyrimidine-2,4(1H,3H)-dione (racemate)]
0.23	CCC1C(=O)NCCN1C(=O)c1sc2c(c1C)c(=O)n(CC)c(=O)n2CCC(F)(F)F (racemic) [Example 40, 3-Ethyl-6-[(2-ethyl-3-oxopiperazin-1-yl)carbonyl]-5-methyl-1-(3,3,3-trifluoropropyl)thieno[2,3-d]pyrimidine-2,4(1H,3H)-dione (racemate)]
0.0063	Cc1c(C(=O)N2CCC(O)CC2)sc2c1c(=O)n(CC(C)c1ccccc1)c(=O)n2CCC(F)(F)F (racemic) [Example 43, 6-[(4-Hydroxypiperidin-1-yl)carbonyl]-5-methyl-3-(2-phenylpropyl)-1-(3,3,3-trifluoropropyl)thieno[2,3-d]pyrimidine-2,4(1H,3H)-dione (racemate)]
0.0079	COC(Cn1c(=O)c2c(C)c(C(=O)N3CCC(O)CC3)sc2n(CCC(F)(F)F)c1=O)c1ccccc1 (racemic) [Example 46, 6-[(4-Hydroxypiperidin-1-yl)carbonyl]-3-(2-methoxy-2-phenylethyl)-5-methyl-1-(3,3,3-trifluoropropyl)thieno[2,3-d]pyrimidine-2,4(1H,3H)-dione (racemate)]
0.37	CCn1c(=O)c2c(C)c(C(=O)N3CCC(O)CC3)sc2n(CC2CC2(F)F)c1=O (racemic) [Example 59, 1-[(2,2-Difluorocyclopropyl)methyl]-3-ethyl-6-[(4-hydroxypiperidin-1-yl)carbonyl]-5-methylthieno[2,3-d]pyrimidine-2,4(1H,3H)-dione (racemate)]
0.096	COC(C)Cn1c(=O)c2c(C)c(C(=O)N3CCC(O)CC3)sc2n(CCC(F)(F)F)c1=O (racemic) [Example 65, 6-[(4-Hydroxypiperidin-1-yl)carbonyl]-3-(2-methoxypropyl)-5-methyl-1-(3,3,3-trifluoropropyl)thieno[2,3-d]pyrimidine-2,4(1H,3H)-dione (racemate)]
0.28	COC(Cn1c(=O)c2c(C)c(C(=O)N3CCC(O)CC3)sc2n(CCC(F)(F)F)c1=O)C(F)(F)F (racemic) [Example 66, 6-[(4-Hydroxypiperidin-1-yl)carbonyl]-5-methyl-3-(3,3,3-trifluoro-2-methoxypropyl)-1-(3,3,3-trifluoropropyl)thieno[2,3-d]pyrimidine-2,4(1H,3H)-dione (racemate)]
0.17	COC(Cn1c(=O)c2c(C)c(C(=O)N3CCC(O)(CO)CC3)sc2n(CCC(F)(F)F)c1=O)C(F)(F)F (racemic) [Example 81, 6-{[4-Hydroxy-4-(hydroxymethyl)piperidin-1-yl]carbonyl}-5-methyl-3-(3,3,3-trifluoro-2-methoxypropyl)-1-(3,3,3-trifluoropropyl)thieno[2,3-d]pyrimidine-2,4(1H,3H)-dione]
0.0091	Cc1c(C(=O)N2CCC(O)CC2)sc2c1c(=O)n(CC(c1ccccc1)C(F)(F)F)c(=O)n2CCC(F)(F)F (racemic) [Example 104, 6-[(4-Hydroxypiperidin-1-yl)carbonyl]-5-methyl-3-(3,3,3-trifluoro-2-phenylpropyl)-1-(3,3,3-trifluoropropyl)thieno[2,3-d]pyrimidine-2,4(1H,3H)-dione]
0.069	Cc1c(C(=O)N2CCC(O)CC2)sc2c1c(=O)n(CC(C)(O)c1ccccc1)c(=O)n2CCC(F)(F)F (racemic) [Example 105, 3-(2-Hydroxy-2-phenylpropyl)-6-[(4-hydroxypiperidin-1-yl)carbonyl]-5-methyl-1-(3,3,3-trifluoropropyl)thieno[2,3-d]pyrimidine-2,4(1H,3H)-dione]
0.2	CCn1c(=O)c2c(C)c(C(=O)N3CCC(O)C(O)C3)sc2n(CCC(F)(F)F)c1=O (racemic) [Example 116, 6-[(3,4-Dihydroxypiperidin-1-yl)carbonyl]-3-ethyl-5-methyl-1-(3,3,3-trifluoropropyl)thieno [2,3-d]pyrimidine-2,4(1H,3H)-dione]
0.21	CCn1c(=O)c2c(C)c(C(=O)N3CCC(O)C(O)C3)sc2n(CCC(F)(F)F)c1=O (racemic) [Example 119, 6-[(3,4-Dihydroxypiperidin-1-yl)carbonyl]-3-ethyl-5-methyl-1-(3,3,3-trifluoropropyl)thieno [2,3-d]pyrimidine-2,4(1H,3H)-dione]
0.097	CCn1c(=O)c2c(C(C)F)c(C(=O)N3CCC(O)CC3)sc2n(CCC(F)(F)F)c1=O (racemic) [Example 145, 3-Ethyl-5-(1-fluoroethyl)-6-[(4-hydroxypiperidin-1-yl)carbonyl]-1-(3,3,3-trifluoropropyl)thieno[2,3-d]pyrimidine-2,4(1H,3H)-dione]
0.04	CCn1c(=O)c2c(C(C)F)c(C(=O)N3CCC(C)(O)CC3)sc2n(CCC(F)(F)F)c1=O (racemic) [Example 146, 3-Ethyl-5-(1-fluoroethyl)-6-[(4-hydroxy-4-methylpiperidin-1-yl)carbonyl]-1-(3,3,3-trifluoropropyl)thieno[2,3-d]pyrimidine-2,4(1H,3H)-dione]
0.1	CCn1c(=O)c2c(C(C)F)c(C(=O)N3CCNC(=O)C3)sc2n(CCC(F)(F)F)c1=O (racemic) [Example 147, 3-Ethyl-5-(1-fluoroethyl)-6-[(3-oxopiperazin-1-yl)carbonyl]-1-(3,3,3-trifluoropropyl)thieno[2,3-d]pyrimidine-2,4(1H,3H)-dione]
0.029	Cc1c(C(=O)N2CCC(O)CC2)sc2c1c(=O)n(CC(O)c1ccccc1)c(=O)n2CCC(F)(F)F (single isomer, unassigned) [Example 100, 3-(2-Hydroxy-2-phenylethyl)-6-[(4-hydroxypiperidin-1-yl)carbonyl]-5-methyl-1-(3,3,3-trifluoropropyl)thieno[2,3-d]pyrimidine-2,4(1H,3H)-dione]
1.2	Cc1c(C(=O)N2CCC(O)CC2)sc2c1c(=O)n(CC(O)c1ccccc1)c(=O)n2CCC(F)(F)F (single isomer, unassigned) [Example 101, 3-(2-Hydroxy-2-phenylethyl)-6-[(4-hydroxypiperidin-1-yl)carbonyl]-5-methyl-1-(3,3,3-trifluoropropyl)thieno[2,3-d]pyrimidine-2,4(1H,3H)-dione]
0.0036	Cc1c(C(=O)N2CCC(O)CC2)sc2c1c(=O)n(CC(F)c1ccccc1)c(=O)n2CCC(F)(F)F (single isomer, unassigned) [Example 102, 3-(2-Fluoro-2-phenylethyl)-6-[(4-hydroxypiperidin-1-yl)carbonyl]-5-methyl-1-(3,3,3-trifluoropropyl)thieno [2,3-d]pyrimidine-2,4(1H,3H)-dione]
0.016	Cc1c(C(=O)N2CCC(O)CC2)sc2c1c(=O)n(CC(F)c1ccccc1)c(=O)n2CCC(F)(F)F (single isomer, unassigned) [Example 103, 3-(2-Fluoro-2-phenylethyl)-6-[(4-hydroxypiperidin-1-yl)carbonyl]-5-methyl-1-(3,3,3-trifluoropropyl)thieno[2,3-d]pyrimidine-2,4(1H,3H)-dione]
0.045	COC(Cn1c(=O)c2c(C)c(C(=O)N3CCC(O)CC3)sc2n(CCC(F)(F)F)c1=O)C(F)(F)F (single isomer, unassigned) [Example 107, 6-[(4-Hydroxypiperidin-1-yl)carbonyl]-5-methyl-3-(3,3,3-trifluoro-2-methoxypropyl)-1-(3,3,3-trifluoropropyl)thieno[2,3-d]pyrimidine-2,4(1H,3H)-dione]
0.58	COC(Cn1c(=O)c2c(C)c(C(=O)N3CCC(O)CC3)sc2n(CCC(F)(F)F)c1=O)C(F)(F)F (single isomer, unassigned) [Example 108, 6-[(4-Hydroxypiperidin-1-yl)carbonyl]-5-methyl-3-(3,3,3-trifluoro-2-methoxypropyl)-1-(3,3,3-trifluoropropyl)thieno[2,3-d]pyrimidine-2,4(1H,3H)-dione]
0.11	COC(Cn1c(=O)c2c(C)c(C(=O)N3CCC(O)(CO)CC3)sc2n(CCC(F)(F)F)c1=O)C(F)(F)F (single isomer, unassigned) [Example 114, 6-{[4-Hydroxy-4-(hydroxymethyl)piperidin-1-yl]carbonyl}-5-methyl-3-(3,3,3-trifluoro-2-methoxypropyl)-1-(3,3,3-trifluoropropyl)thieno[2,3-d]pyrimidine-2,4(1H,3H)-dione]
